Results reported in patent US10968265B2, “Antibody-coupled cyclic peptide tyrosine tyrosine compounds as modulators of neuropeptide Y receptors” (Janssen Pharmaceutica NV, priority 2016, dated 2021).

Legend:
[1] = OGTT after 8 days of treatment in DIO mice; assay type: in vivo, mouse; details: 0.3 nmol/kg every day
Method: (§1) Compound 1 was evaluated for its ability to reduce foot intake and body weight and improve glucose homeostasis on repeat dosing in male DIO C57Bl/6 mice over a period of 8 days. Male DIO C57BL/6N mice (20 weeks of age, 14 weeks on high fat diet) were obtained from Taconic Laboratory. […] Animals were acclimated to the facility for at least one week prior to the start of the experiment.
(§2) The day prior to dosing, mice were grouped based on individual body weights. At 3:00-4:00 pm for each of the next 8 days, animals and food intake were weighed. […] After 8 days, mice are fasted for 5 hours and then given a 2 g/kg bolus of glucose orally at t=0. At t=0, 30, 60, 90, and 120 minutes post glucose challenge blood glucose is measured and at t=0, 30, and 90 minutes blood in drawn to measure plasma insulin. […] All data are presented as the mean±SEM (FIG. 7, FIG. 8, and Tables 8-11).

[2] = Single dose, food intake and body weight in Sprague-Dawley rats; assay type: in vivo, rat; parameters: body weight change: unit not given here; details: single dose 0.3 nmol/kg s.c. (Dulaglutide); for absolute body weight: in g (unit assumed)
Method: Compound 1 was evaluated for its ability to reduce foot intake and body weight in Sprague-Dawley after a single dose. The animals were obtained from Charles River Labs (Wilmington, Mass.) at 200-225 g body weight and used within one week of delivery. They were housed one per cage on alpha dry bedding and a plastic tube for enrichment in a temperature-controlled room with 12-hour light/dark cycle. […] Animal weights were taken and recorded for each rat prior to dosing.
Body weights and food intake were measured 1, 2 and 3 days after dosing and the percentages of weight loss and reduction in food intake were calculated. […] All data are presented as the mean±SEM (Tables 18-20).

[3] = Weight loss in diet-induced obese mice: chronic dosing; assay type: in vivo, mouse; details: for body weight: 0.3 nmol/kg s.c. every day
Method: as §1, §2

Dulaglutide
blood glucose (mg/dL) during OGTT ([1]; 0 min after glucose challenge): 76 ± 9 mg/dL | insulin (ng/mL) during OGTT ([1]; 0 min after glucose challenge): 0.6 ± 0.1 ng/mL | blood glucose (mg/dL) during OGTT ([1]; 30 min after glucose challenge): 151 ± 14 mg/dL | insulin (ng/mL) during OGTT ([1]; 30 min after glucose challenge): 1.7 ± 0.2 ng/mL | blood glucose (mg/dL) during OGTT ([1]; 60 min after glucose challenge): 174 ± 17 mg/dL | blood glucose (mg/dL) during OGTT ([1]; 90 min after glucose challenge): 104 ± 10 mg/dL | insulin (ng/mL) during OGTT ([1]; 90 min after glucose challenge): 0.7 ± 0.2 ng/mL | blood glucose (mg/dL) during OGTT ([1]; 120 min after glucose challenge): 119 ± 9 mg/dL | glucose Delta AUC (mg/dl/120 min) ([1]; OGTT): 6668 ± 1846 mg/dl/120 min | glucose Total AUC (mg/dl/120 min) ([1]; OGTT): 15758 ± 1054 mg/dl/120 min | body weight change ([2]; Day 0): 0.0 ± 0.0 | daily food intake ([2]; Day 0): 26.6 ± 0.8 | absolute body weight ([2]; Day 0): 270.3 ± 3.0 | body weight change ([2]; Day 1): 10.6 ± 1.6 | daily food intake ([2]; Day 1): 27.3 ± 1.2 | absolute body weight ([2]; Day 1): 280.8 ± 4.2 | body weight change ([2]; Day 2): 22.5 ± 0.8 | daily food intake ([2]; Day 2): 30.0 ± 0.7 | absolute body weight ([2]; Day 2): 292.47 ± 3.6 | body weight change ([2]; Day 3): 28.7 ± 0.6 | daily food intake ([2]; Day 3): 30.1 ± 0.7 | absolute body weight ([2]; Day 3): 299.0 ± 3.3 | body weight change ([2]; Day −1): −6.3 ± 0.8 | absolute body weight ([2]; Day −1): 264.0 ± 3.1 | Total Food Consumption ([2]; over three days): 87.4 ± 2.0 | fed Blood Glucose ([3]; 0.3 nmol/kg every day, after 8 days of treatment): 114 ± 13 mg/dL | body weight ([3]; Day 0): 45.9 ± 0.6 g | body weight ([3]; Day 1): 44.1 ± 0.6 g | body weight ([3]; Day 2): 42.2 ± 0.6 g | body weight ([3]; Day 3): 40.6 ± 0.6 g | body weight ([3]; Day 4): 39.3 ± 0.6 g | body weight ([3]; Day 5): 38.1 ± 0.7 g | body weight ([3]; Day 6): 37.1 ± 0.8 g | body weight ([3]; Day 7): 36.4 ± 1.0 g | body weight ([3]; Day 8): 36.5 ± 1.1 g | body weight ([3]; Day −1): 46.3 ± 0.6 g
